Twelve molecules from ChEMBL document CHEMBL1143034, “The screening and characterization of 6-aminopurine-based xanthine oxidase inhibitors” (Bioorg Med Chem, 2007) can be followed below.

The target in one test is T1, Xanthine dehydrogenase/oxidase (Homo sapiens, UniProt P47989). Description: Inhibition of human xanthine oxidase.
T1 sequence (P47989 whole entry): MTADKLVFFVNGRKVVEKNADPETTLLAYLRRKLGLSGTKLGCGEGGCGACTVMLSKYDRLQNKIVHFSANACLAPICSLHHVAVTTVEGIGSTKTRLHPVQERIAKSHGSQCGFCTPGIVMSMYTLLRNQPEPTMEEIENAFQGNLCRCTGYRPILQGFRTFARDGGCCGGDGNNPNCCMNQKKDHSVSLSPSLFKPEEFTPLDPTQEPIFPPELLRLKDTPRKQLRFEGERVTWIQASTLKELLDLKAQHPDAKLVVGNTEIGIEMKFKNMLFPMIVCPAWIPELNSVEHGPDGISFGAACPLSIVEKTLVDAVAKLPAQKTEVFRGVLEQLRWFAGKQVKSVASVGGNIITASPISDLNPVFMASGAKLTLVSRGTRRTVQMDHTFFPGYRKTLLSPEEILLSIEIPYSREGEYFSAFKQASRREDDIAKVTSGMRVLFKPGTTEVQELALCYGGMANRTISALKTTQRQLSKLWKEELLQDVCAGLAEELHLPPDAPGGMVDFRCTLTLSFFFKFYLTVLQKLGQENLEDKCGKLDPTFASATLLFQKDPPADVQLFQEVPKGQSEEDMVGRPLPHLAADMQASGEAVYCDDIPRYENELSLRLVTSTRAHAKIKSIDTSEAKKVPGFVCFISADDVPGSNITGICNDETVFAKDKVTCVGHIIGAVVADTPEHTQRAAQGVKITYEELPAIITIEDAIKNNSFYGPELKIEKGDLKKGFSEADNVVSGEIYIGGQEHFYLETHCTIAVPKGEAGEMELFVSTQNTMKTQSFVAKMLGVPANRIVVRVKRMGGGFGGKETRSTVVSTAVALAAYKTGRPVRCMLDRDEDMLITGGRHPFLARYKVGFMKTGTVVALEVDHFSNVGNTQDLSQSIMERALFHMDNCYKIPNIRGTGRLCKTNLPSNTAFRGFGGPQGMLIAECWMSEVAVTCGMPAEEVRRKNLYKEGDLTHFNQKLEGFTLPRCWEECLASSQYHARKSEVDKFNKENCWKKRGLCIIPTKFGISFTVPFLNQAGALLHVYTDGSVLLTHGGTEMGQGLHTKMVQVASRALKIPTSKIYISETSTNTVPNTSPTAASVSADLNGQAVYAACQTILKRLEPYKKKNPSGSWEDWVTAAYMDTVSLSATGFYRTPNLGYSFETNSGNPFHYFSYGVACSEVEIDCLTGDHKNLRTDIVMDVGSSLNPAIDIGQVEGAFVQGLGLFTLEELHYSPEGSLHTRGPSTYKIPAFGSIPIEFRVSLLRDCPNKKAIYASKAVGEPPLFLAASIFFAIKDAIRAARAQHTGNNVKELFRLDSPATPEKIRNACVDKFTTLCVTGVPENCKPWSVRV
As usually defined, the IC50 is the point on the concentration scale where inhibition reaches its midpoint. Higher therefore signals weaker potency. `Cc1ccc2[nH]cnc2c1` displayed an IC50 of more than 200 µM.
For `O=[N+]([O-])c1ccc2[nH]cnc2c1`, it took 86.8 µM to reach half-maximal inhibition (IC50).
Take `Nc1ncnc2[nH]ncc12`: the IC50 amounted to 30.3 µM.
In turn, `Cn1c(=O)[nH]c2nc[nH]c2c1=O` [1-METHYLXANTHINE] came in with an IC50 of more than 200 µM.
On the same count and under the same terms, the same measure for `Nc1nc(N)c2[nH]cnc2n1` [2,6-DIAMINOPURINE]: more than 200 µM; for `Nc1ncc2[nH]cnc2n1` [2-AMINOPURINE]: more than 200 µM.
The same measure, in the same setting: the same measure for `Nc1nc(Cl)c2nc[nH]c2n1` [6-CHLOROGUANINE]: more than 200 µM; for `Cc1cc2nc[nH]c2cc1C` [DIMEDAZOL]: more than 200 µM; for `COc1nc(N)nc2nc[nH]c12` [METHYLGUANINE]: more than 200 µM.
On the same count and under the same terms, as for `Nc1nc2nc[nH]c2c(=S)[nH]1` [THIOGUANINE], the figure is 92.4 µM.

For another test, the target named is T1, Xanthine dehydrogenase/oxidase. Kind of test: Inhibition of human xanthine oxidase at 30 uM.
Usually inhibition stands for the share of the control response that was lost under treatment. Regarding `Nc1ncnc2[nH]ncc12`, the inhibition at 30 µM stood at 49.8%.
`Nc1[nH]cnc2ncnc1-2` [ADENINE] came in with an inhibition at 30 µM of 61.3%.
The same measure, in the same setting: as for `Oc1ncnc2[nH]ncc12` [ALLOPURINOL], the figure is 93.8%.
